Measurements as given in publication PMC8241045, “Improving anti-tumor activity of sorafenib tosylate by lipid- and polymer-coated nanomatrix” (Drug Delivery, 2017).
Converted amounts (≈) assume the structure as drawn. Counter-ions that a name gives are not always drawn. Like-named read-outs stand apart in the source and are kept apart here. Each block holds one molecule with its values, some of them ahead of it.

Assays:
[1] = Solubility in distilled water (shake-flask, HPLC); type: physicochemical; settings: 37 °C, thermodynamic from solid
MDA-MB-231 cells = test: In vitro cytotoxicity, sulforhodamine B assay; type: cell-based; settings: Homo sapiens, 48 h, SRB assay, n = 3
Procedure: The cytotoxicity of MSNM@SFN against MDA-MB-231 cells was measured by sulforhodamine B assay (SRB assay). Briefly, MDA-MB-231 cells (1 × 10^4 cells per well) were seeded in a 96-well plate and grown in medium for 24 h. Then, the cells were treated with cell culture medium containing the different amounts of MSNM@SFN for 48 h at 37 °C. The cell viability was determined by SRB assay. Absorbance was measured at 540 nm using a 96-well plate reader (model 680; Bio-Rad Laboratories, Hercules, CA). The survival percentages were calculated using the formula: survival % = (A540 nm for the treated cells/A540 nm for the control cells) × 100%, where A540 nm is the absorbance value. Each assay was carried out in triplicate. Finally, dose–effect curves were constructed and IC50 values were calculated.

[2] = cited from earlier work
[3] = very low aqueous solubility in GI fluids, high permeability; cited from earlier work

- solubility at 48 h ([1]; water, read-out: Solubility of PTX): 0.17 ± 0.02 µg/mL (≈ 0.199 µM)
SMILES: CC(=O)O[C@H]1C(=O)[C@@]2(C)[C@H]([C@H](OC(=O)c3ccccc3)[C@]3(O)C[C@H](OC(=O)[C@H](O)[C@@H](NC(=O)c4ccccc4)c4ccccc4)C(C)=C1C3(C)C)[C@]1(OC(C)=O)CO[C@@H]1C[C@@H]2O [PTX, paclitaxel]

- solubility at 48 h ([1]; 48 h, read-out: Solubility of SFN): < 0.1 µg/mL
SMILES: CNC(=O)c1cc(Oc2ccc(NC(=O)Nc3ccc(Cl)c(C(F)(F)F)c3)cc2)ccn1 [SFN, Sorafenib tosylate]
- IC50 (MDA-MB-231 cells): 5.84 ± 0.17 µM
- LogP [2]: 3.8
- BCS class [3]: BCS II

- solubility at 48 h ([1]; water, read-out: Solubility of SN38): < 0.01 µg/mL
SMILES: CCc1c2c(nc3ccc(O)cc13)-c1cc3c(c(=O)n1C2)COC(=O)[C@]3(O)CC [SN38, 7-ethyl-10-hydroxycamptothecin]
